Assay results published in patent publication US20250230193A1, “CYCLIC COMPOUND HAVING SELECTIVE KRAS INHIBITORY EFFECT ON HRAS AND NRAS” (CHUGAI SEIYAKU KABUSHIKI KAISHA, priority 2022, published 2025).
Where a SMILES comes first, the peptide text is derived from it. Bridges are numbered along the chain shown (N, C = ends). [ ]: non-standard residue; d: D form. The star is where a group is joined. hPhe(3-Cl-4-CF3) = N[C@@H](CCc1ccc(C(F)(F)F)c(Cl)c1)C(=O)O; NPrPhe(4-CF3) = CCCN[C@@H](Cc1ccc(C(F)(F)F)cc1)C(=O)O; Abu(4,4,4-F3) = N[C@@H](CC(F)(F)F)C(=O)O; NMeGly(cPent) = CN[C@H](C(=O)O)C1CCCC1; NMeD = CN[C@@H](CC(=O)O)C(=O)O; NMeL = CN[C@@H](CC(C)C)C(=O)O; Morpholide = C1CN(*)CCO1; Ac5c = NC1(C(=O)O)CCCC1; Sar = CNCC(=O)O

Legend:
[1] = biological target: GDP-bound NRAS wild-type protein (Homo sapiens, UniProt P01111); experiment: Binding to NRAS by surface plasmon resonance (SPR), Single Cycle Kinetics; details: SPR
GDP-bound NRAS wild-type protein, sequence (P01111 whole entry): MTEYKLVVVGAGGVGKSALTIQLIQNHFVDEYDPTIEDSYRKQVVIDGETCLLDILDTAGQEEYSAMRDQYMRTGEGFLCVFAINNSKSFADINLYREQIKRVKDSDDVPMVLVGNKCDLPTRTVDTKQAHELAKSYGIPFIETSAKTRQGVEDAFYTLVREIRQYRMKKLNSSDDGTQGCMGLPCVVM

[2] = biological target: GDP-bound HRAS wild-type protein (Homo sapiens, UniProt P01112); experiment: Binding to HRAS by surface plasmon resonance (SPR), Single Cycle Kinetics; details: SPR
GDP-bound HRAS wild-type protein, sequence (P01112 whole entry): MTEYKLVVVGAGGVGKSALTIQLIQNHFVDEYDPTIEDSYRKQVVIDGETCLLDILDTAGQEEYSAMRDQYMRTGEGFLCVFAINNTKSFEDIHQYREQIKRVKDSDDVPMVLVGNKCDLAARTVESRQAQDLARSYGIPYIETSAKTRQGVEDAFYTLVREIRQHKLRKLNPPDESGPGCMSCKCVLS

[3] = KD ratio, GDP-bound NRAS wild-type vs GDP-bound KRAS wild-type
[4] = KD ratio, GDP-bound HRAS wild-type vs GDP-bound KRAS wild-type

SMILES: CCCN1C(=O)CN(C)C(=O)CN(C)C(=O)[C@H](CC(F)(F)F)NC(=O)[C@H](CC(C)C)N(C)C(=O)C[C@@H](C(=O)N2CCOCC2)N(C)C(=O)[C@H](C2CCCC2)N(C)C(=O)C2(CCCC2)NC(=O)[C@@H]2CCCN2C(=O)[C@H](CCc2ccc(C(F)(F)F)c(Cl)c2)NC(=O)CN(C)C(=O)[C@@H]1Cc1ccc(C(F)(F)F)cc1 [PP0249] ([NMeL][Abu(4,4,4-F3)][Sar][Sar][NPrPhe(4-CF3)][Sar][hPhe(3-Cl-4-CF3)]P[Ac5c][NMeGly(cPent)][NMeD]-Morpholide; lactam N-11)
- NRAS/KRAS (ratio of KD for GDP-bound NRAS wild-type to KD for KRAS) ([1]; KD ratio NRAS/KRAS): B (a compound having 3 or more and less than 10 is denoted as B)
- HRAS/KRAS (ratio of KD for GDP-bound HRAS wild-type to KD for KRAS) ([2]; KD ratio HRAS/KRAS): C (A compound having a KD ratio of 0.1 or more and less than 3 is denoted as C)

SMILES: CCO[C@@H]1C[C@H]2C(=O)NC3(CC(C)(C)C3)C(=O)N(C)[C@@H](C(CC)CC)C(=O)N(C)[C@H](C(=O)N(C)C)CC(=O)N(C)[C@H]3CCCCCc4ccc(cc4)C[C@@H](C(=O)N(C)CC(=O)N[C@@H](CCc4ccc(C(F)(F)F)c(OC)c4)C(=O)N2C1)N1CC/C=C\C[C@@H](C1=O)N(C)C(=O)CN(C)C(=O)[C@H]([C@@H](C)CC)NC3=O [PP3035]
- NRAS/KRAS (ratio of KD value with respect to GDP-bound NRAS wild-type protein to KD value with respect to KRAS) ([1]; KD ratio NRAS/KRAS, GDP-bound wild-type proteins): AA (a compound having 20 or more is denoted as AA)
- HRAS/KRAS (ratio of KD value with respect to GDP-bound HRAS wild-type protein to KD value with respect to KRAS) ([2]; KD ratio HRAS/KRAS, GDP-bound wild-type proteins): A (a compound having 10 or more and less than 20 is denoted as A)

SMILES: CCO[C@@H]1C[C@H]2C(=O)N[C@]3(C)CCCCCC[C@@H](C(=O)N[C@@H]([C@@H](C)CC)C(=O)N(C)CC(=O)N(C)[C@H]4CCCCN(C4=O)[C@@H](Cc4ccc(C(F)(F)F)cc4)C(=O)N(C)CC(=O)N[C@@H](CCc4cc(F)c(C(F)(F)F)c(F)c4)C(=O)N2C1)N(C)C(=O)C[C@@H](C(=O)N1CCOCC1)N(C)C(=O)[C@H](C1CCCC1)N(C)C3=O [PP0992]
- NRAS/KRAS (ratio of KD value with respect to NRAS to KD value with respect to KRAS) [1, 3]: B (a compound having 3 or more and less than 10 is denoted as B)
- HRAS/KRAS (ratio of KD value with respect to HRAS to KD value with respect to KRAS) [2, 4]: B (a compound having 3 or more and less than 10 is denoted as B)

SMILES: CCO[C@@H]1C[C@H]2C(=O)NC3(CCC3)C(=O)N(C)[C@@H](C3CCCC3)C(=O)N(C)[C@H](C(=O)N(C)C)CC(=O)N(C)[C@@H](CC)C(=O)N[C@@H]([C@@H](C)CC)C(=O)N(CC)CC(=O)N(C)[C@H]3C/C=C\CCN(C3=O)[C@@H](Cc3ccc(C(F)(F)F)cc3)C(=O)N(C)CC(=O)N[C@@H](CCc3cc(F)c(C(F)(F)F)c(F)c3)C(=O)N2C1 [PP1052]
- NRAS/KRAS (ratio of KD value with respect to NRAS to KD value with respect to KRAS) [1, 3]: A (a compound having 10 or more and less than 20 is denoted as A)
- HRAS/KRAS (ratio of KD value with respect to HRAS to KD value with respect to KRAS) [2, 4]: A (a compound having 10 or more and less than 20 is denoted as A)

SMILES: CCCN(C)C(=O)[C@@H]1CC(=O)N(C)[C@@H](CC(F)(F)F)C(=O)N[C@@H]([C@@H](C)CC)C(=O)N(C)CC(=O)N(C)[C@H]2C/C=C\CCN(C2=O)[C@@H](Cc2ccc(C(F)(F)F)cc2)C(=O)N(C)CC(=O)N[C@@H](CCc2cc(F)c(C(F)(F)F)c(F)c2)C(=O)N2C[C@H](OCC)C[C@H]2C(=O)NC2(CCC2)C(=O)N(C)[C@@H](C2CCCC2)C(=O)N1C [PP1702]
- NRAS/KRAS (ratio of KD value for NRAS to KD value for KRAS) [1, 3]: A (a compound having 10 or more and less than 20 is denoted as A)
- HRAS/KRAS (ratio of KD value for HRAS to KD value for KRAS) [2, 4]: A (a compound having 10 or more and less than 20 is denoted as A)

SMILES: CCO[C@@H]1C[C@H]2C(=O)NC3(CC(C)(C)C3)C(=O)N(C)[C@@H](C3CCCC3)C(=O)N(C)[C@H](C(=O)N3CCOCC3)CC(=O)N(C)[C@@H](CC(C)C)C(=O)N[C@@H]([C@@H](C)CC)C(=O)N(C)CC(=O)N(C)[C@H]3CCCCCN(C3=O)[C@@H](Cc3ccc(C(F)(F)F)cc3)C(=O)N(C)CC(=O)N[C@@H](CCc3cc(F)c(C(F)(F)F)c(F)c3)C(=O)N2C1 [PP0726]
- NRAS/KRAS (ratio of KD value with respect to GDP-bound NRAS wild-type protein to KD value with respect to KRAS) ([1]; KD ratio NRAS/KRAS): B (a compound having 3 or more and less than 10 is denoted as B)
- HRAS/KRAS (ratio of KD value with respect to GDP-bound HRAS wild-type protein to KD value with respect to KRAS) ([2]; KD ratio HRAS/KRAS): B (a compound having 3 or more and less than 10 is denoted as B)

SMILES: CC[C@H](C)[C@@H]1NC(=O)[C@H](CC(C)C)N(C)C(=O)C[C@@H](C(=O)N(C)C)N(C)C(=O)[C@H](C2CCCC2)N(C)C(=O)C2(CCCC2)NC(=O)[C@@H]2CC(F)(F)CN2C(=O)[C@H](CCc2cc(F)c(C(F)(F)F)c(F)c2)NC(=O)CN(C)C(=O)[C@H](Cc2ccc(C(F)(F)F)cc2)N2CCCC[C@@H](C2=O)N(C)C(=O)CN(C)C1=O [PP0576]
- NRAS/KRAS (ratio of KD value with respect to GDP-bound NRAS wild-type protein to KD value with respect to KRAS) ([1]; KD ratio NRAS/KRAS): C (A compound having a KD ratio of 0.1 or more and less than 3 is denoted as C)
- HRAS/KRAS (ratio of KD value with respect to GDP-bound HRAS wild-type protein to KD value with respect to KRAS) ([2]; KD ratio HRAS/KRAS): B (a compound having 3 or more and less than 10 is denoted as B)
